According to patent publication EP0444659B1, “A pharmaceutical solution comprising derivatives of FK506” (FUJISAWA PHARMACEUTICAL CO., LTD., priority 1990, dated 1991):
In brackets after ≈: the same amount, converted by molar mass.

Tests used:
Assay type in all cases: physicochemical
[1] = solubility of FK 506 in nonaqueous solvents; settings: for solubility: ambient temperature
[2] = physchem
Source text: From the above point of view, the inventors of the present invention studied, at first, the solubility of the compound (I) in water. As a test compound, the inventors selected the following compound as a free form which has an excellent immunosupressive activity and is called FK 506 hereafter. R^1, R^2, R^8, R^23 = hydrogen R^7, R^9 = hydroxy R^14, R^15, R^16, R^17, R^18, R^19, R^22 = methyl R^10 = allyl R^20 = R^20a,H (R^20a = methoxy) X, Y = oxygen R^21 = R^21a,H (R^21a = hydroxy) n = 2 R^3, R^4 = form a second bond between the vicinal carbon atoms to which they are attached R^5, R^6 = form a second bond between the vicinal carbon atoms to which they are attached
The solubility of FK 506 in water is at most 3 µg/ml under ambient temperature. Accordingly, it is decided to add a surface active agent in order to increase the solubility of FK 506 in water to the level where the clinically effective amount of FK 506 is dissolved. […] As a surface active agent, a castor oil-surface active agent i.e., HCO-10, HCO-40, HCO-60 (trademark, prepared by Nikko Chemicals, respectively) are selected for examination.
It is conjectured from the result shown in Table 1 that the concentration of the surface active agent should be controlled at 1.43w/v% [about 150mg of the surface active agent against 1mg of FK506] to dissolve 0.1mg of FK 506 in 1ml of water, calculating based on the result that 0.035mg of FK 506 is dissolved in 1ml of 0.5w/v% HCO-60 aqueous solution at 20 °C. Accordingly, if it is desired to prepare 5mg/ml aqueous solution FK 506, the concentration of the surface active agent is estimated to come up to 87w/v% from the calculation based on the result of HCO-60, 20w/v%, 20°C. Such […] high concentration of surface active agent in aqueous solution should not be realized in practice of clinical field.

[3] = dilution of the solution with physiological saline: clarity, turbidity and crystal separation
Description: Nonaqueous solvent is, at the time of administrating into the human vascular tract, usually diluted with aqueous solvent such as physiological saline, since nonaqueous solvent has hemolysis action.
The experimental solution (1ml) of the following prescription 3 consisting of FK 506, surface active agent and nonaqueous solvent was diluted with physiological saline (100ml) to find that the clear appearance of prescription was kept unchanged.
Then several prescriptions of clear solution were further prepared altering the concentration of FK 506, the kind and the concentration of surface active agent, and were tested how change the clearity of the solution and whether separate out the crystal or not under the several condition of different degree of dilution.

[4] = remaining percentage of FK 506 in aqueous solution with large amount of surface active agent (storage stability); settings: FK 506 dissolved in water in the presence of large amount of surface active agent; Table 2 is an image

C=CCC1C=C(C)CC(C)CC(OC)C2OC(O)(C(=O)C(=O)N3CCCCC3C(=O)OC(C(C)=CC3CCC(O)C(OC)C3)C(C)C(O)CC1=O)C(C)CC2OC (stereo not shown) [FK 506, 17-allyl-1,14-dihydroxy-12-[2-(4-hydroxy-3-methoxycyclohexyl)-1-methylvinyl]-23, 25-dimethoxy-13,19,21,27-tetramethyl-11, 28-dioxa-4-azatricyclo-[22.3.1.0^4.9] octacos-18-ene-2,3,10,16-tetraone]
concentration at which FK 506 is dissolved in the experimented solvent ([1]; PEG 400, ethanol and propylene glycol (summary of Table 3)): more than 40 mg/ml
solubility ([1]; Solvent Ethanol): > 300000 µg/mL
solubility ([1]; Solvent PEG 400): > 40000 µg/mL
solubility ([1]; Solvent Propylene glycol): > 40000 µg/mL
amount of the surface active agent against 1mg of FK506 [2]: about 150 mg
concentration of the surface active agent to prepare 5mg/ml aqueous solution FK 506 [2]: 87 w/v%
concentration of the surface active agent to dissolve 0.1mg of FK 506 in 1ml of water ([2]; calculated from 0.035mg/ml in 0.5w/v% HCO-60 at 20 °C): 1.43 w/v%
solubility ([2]; hco-40 5 w/v% aqueous, solubility of FK506): 400 µg/mL (≈ 497 µM)
solubility ([2]; hco-40 10 w/v% aqueous, solubility of FK506): 780 µg/mL (≈ 970 µM)
solubility ([2]; hco-40 20 w/v% aqueous, solubility of FK506): 1520 µg/mL (≈ 1890 µM)
solubility ([2]; hco-60 0.1 w/v% aqueous, solubility of FK506): 5 µg/mL (≈ 6.22 µM)
solubility ([2]; hco-60 0.3 w/v% aqueous, solubility of FK506): 19 µg/mL (≈ 23.6 µM)
solubility ([2]; hco-60 0.5 w/v% aqueous, solubility of FK506): 35 µg/mL (≈ 43.5 µM)
solubility of FK506 ([2]; hco-60 5 w/v% aqueous): 290 µg/mL
solubility ([2]; hco-60 5 w/v% aqueous, solubility of FK506): 280 µg/mL (≈ 348 µM)
solubility of FK506 ([2]; hco-60 10 w/v% aqueous): 570 µg/mL
solubility ([2]; hco-60 10 w/v% aqueous, solubility of FK506): 610 µg/mL (≈ 759 µM)
solubility of FK506 ([2]; hco-60 20 w/v% aqueous): 1140 µg/mL
solubility ([2]; hco-60 20 w/v% aqueous, solubility of FK506): 1150 µg/mL (≈ 1430 µM)
solubility of FK506 ([2]; hco-60/hco-10 (4:1) 5 w/v%): 270 µg/mL
solubility ([2]; hco-60/hco-10 (4:1) 5 w/v%, solubility of FK506): 260 µg/mL (≈ 323 µM)
solubility of FK506 ([2]; hco-60/hco-10 (4:1) 10 w/v%): 560 µg/mL
solubility ([2]; hco-60/hco-10 (4:1) 10 w/v%, solubility of FK506): 560 µg/mL (≈ 696 µM)
solubility of FK506 ([2]; hco-60/hco-10 (4:1) 20 w/v%): 1140 µg/mL
solubility ([2]; hco-60/hco-10 (4:1) 20 w/v%, solubility of FK506): 1130 µg/mL (≈ 1410 µM)
solubility ([2]; water, solubility of FK 506 in water): ≤ 3 µg/mL
Period till solution becomes turbid to crystallize FK506 ([3]; FK 506 5 mg/ml, dilution times with physiological saline 2, Cremophor®EL, ethanol/surface active agent 35/65): ≧7 days
Period till solution becomes turbid to crystallize FK506 ([3]; FK 506 5 mg/ml, dilution times with physiological saline 2, Cremophor®EL, ethanol/surface active agent 80/20): ≧7 days
Period till solution becomes turbid to crystallize FK506 ([3]; FK 506 5 mg/ml, dilution times with physiological saline 2, HCO-40, ethanol/surface active agent 40/60): ≧7 days
Period till solution becomes turbid to crystallize FK506 ([3]; FK 506 5 mg/ml, dilution times with physiological saline 2, HCO-40, ethanol/surface active agent 80/20): ≧7 days
Period till solution becomes turbid to crystallize FK506 ([3]; FK 506 5 mg/ml, dilution times with physiological saline 2, HCO-60, ethanol/surface active agent 35/65): ≧7 days
Period till solution becomes turbid to crystallize FK506 ([3]; FK 506 5 mg/ml, dilution times with physiological saline 2, HCO-60, ethanol/surface active agent 60/40): ≧7 days
Period till solution becomes turbid to crystallize FK506 ([3]; FK 506 5 mg/ml, dilution times with physiological saline 2, HCO-60, ethanol/surface active agent 80/20): ≧7 days
Period till solution becomes turbid to crystallize FK506 ([3]; FK 506 5 mg/ml, dilution times with physiological saline 100, Cremophor®EL, ethanol/surface active agent 35/65): ≧7 days
Period till solution becomes turbid to crystallize FK506 ([3]; FK 506 5 mg/ml, dilution times with physiological saline 100, Cremophor®EL, ethanol/surface active agent 80/20): ≧7 days
Period till solution becomes turbid to crystallize FK506 ([3]; FK 506 5 mg/ml, dilution times with physiological saline 100, HCO-40, ethanol/surface active agent 40/60): ≧7 days
Period till solution becomes turbid to crystallize FK506 ([3]; FK 506 5 mg/ml, dilution times with physiological saline 100, HCO-40, ethanol/surface active agent 80/20): ≧7 days
Period till solution becomes turbid to crystallize FK506 ([3]; FK 506 5 mg/ml, dilution times with physiological saline 100, HCO-60, ethanol/surface active agent 35/65): ≧7 days
Period till solution becomes turbid to crystallize FK506 ([3]; FK 506 5 mg/ml, dilution times with physiological saline 100, HCO-60, ethanol/surface active agent 60/40): ≧7 days
Period till solution becomes turbid to crystallize FK506 ([3]; FK 506 5 mg/ml, dilution times with physiological saline 100, HCO-60, ethanol/surface active agent 80/20): ≧7 days
Period till solution becomes turbid to crystallize FK506 ([3]; FK 506 10 mg/ml, dilution times with physiological saline 2, Cremophor®EL, ethanol/surface active agent 35/65): ≧7 days
Period till solution becomes turbid to crystallize FK506 ([3]; FK 506 10 mg/ml, dilution times with physiological saline 2, Cremophor®EL, ethanol/surface active agent 80/20): ≧7 days
Period till solution becomes turbid to crystallize FK506 ([3]; FK 506 10 mg/ml, dilution times with physiological saline 2, HCO-40, ethanol/surface active agent 40/60): ≧7 days
Period till solution becomes turbid to crystallize FK506 ([3]; FK 506 10 mg/ml, dilution times with physiological saline 2, HCO-40, ethanol/surface active agent 80/20): ≧7 days
Period till solution becomes turbid to crystallize FK506 ([3]; FK 506 10 mg/ml, dilution times with physiological saline 2, HCO-60, ethanol/surface active agent 35/65): ≧7 days
Period till solution becomes turbid to crystallize FK506 ([3]; FK 506 10 mg/ml, dilution times with physiological saline 2, HCO-60, ethanol/surface active agent 60/40): ≧7 days
Period till solution becomes turbid to crystallize FK506 ([3]; FK 506 10 mg/ml, dilution times with physiological saline 2, HCO-60, ethanol/surface active agent 80/20): ≧7 days
Period till solution becomes turbid to crystallize FK506 ([3]; FK 506 10 mg/ml, dilution times with physiological saline 100, Cremophor®EL, ethanol/surface active agent 35/65): ≧7 days
Period till solution becomes turbid to crystallize FK506 ([3]; FK 506 10 mg/ml, dilution times with physiological saline 100, Cremophor®EL, ethanol/surface active agent 80/20): ≧7 days
Period till solution becomes turbid to crystallize FK506 ([3]; FK 506 10 mg/ml, dilution times with physiological saline 100, HCO-40, ethanol/surface active agent 40/60): ≧7 days
Period till solution becomes turbid to crystallize FK506 ([3]; FK 506 10 mg/ml, dilution times with physiological saline 100, HCO-40, ethanol/surface active agent 80/20): ≧7 days
Period till solution becomes turbid to crystallize FK506 ([3]; FK 506 10 mg/ml, dilution times with physiological saline 100, HCO-60, ethanol/surface active agent 35/65): ≧7 days
Period till solution becomes turbid to crystallize FK506 ([3]; FK 506 10 mg/ml, dilution times with physiological saline 100, HCO-60, ethanol/surface active agent 60/40): ≧7 days
Period till solution becomes turbid to crystallize FK506 ([3]; FK 506 10 mg/ml, dilution times with physiological saline 100, HCO-60, ethanol/surface active agent 80/20): ≧7 days
Period till solution becomes turbid to crystallize FK506 ([3]; FK 506 25 mg/ml, dilution times with physiological saline 2, Cremophor®EL, ethanol/surface active agent 35/65): ≧7 days
Period till solution becomes turbid to crystallize FK506 ([3]; FK 506 25 mg/ml, dilution times with physiological saline 2, Cremophor®EL, ethanol/surface active agent 80/20): ≧7 days
Period till solution becomes turbid to crystallize FK506 ([3]; FK 506 25 mg/ml, dilution times with physiological saline 2, HCO-40, ethanol/surface active agent 40/60): ≧7 days
Period till solution becomes turbid to crystallize FK506 ([3]; FK 506 25 mg/ml, dilution times with physiological saline 2, HCO-40, ethanol/surface active agent 80/20): ≧7 days
Period till solution becomes turbid to crystallize FK506 ([3]; FK 506 25 mg/ml, dilution times with physiological saline 2, HCO-60, ethanol/surface active agent 35/65): ≧7 days
Period till solution becomes turbid to crystallize FK506 ([3]; FK 506 25 mg/ml, dilution times with physiological saline 2, HCO-60, ethanol/surface active agent 60/40): ≧7 days
Period till solution becomes turbid to crystallize FK506 ([3]; FK 506 25 mg/ml, dilution times with physiological saline 2, HCO-60, ethanol/surface active agent 80/20): ≧7 days
Period till solution becomes turbid to crystallize FK506 ([3]; FK 506 25 mg/ml, dilution times with physiological saline 100, Cremophor®EL, ethanol/surface active agent 35/65): ≧7 days
Period till solution becomes turbid to crystallize FK506 ([3]; FK 506 25 mg/ml, dilution times with physiological saline 100, Cremophor®EL, ethanol/surface active agent 80/20): ≧1 days
Period till solution becomes turbid to crystallize FK506 ([3]; FK 506 25 mg/ml, dilution times with physiological saline 100, HCO-40, ethanol/surface active agent 40/60): ≧7 days
Period till solution becomes turbid to crystallize FK506 ([3]; FK 506 25 mg/ml, dilution times with physiological saline 100, HCO-40, ethanol/surface active agent 80/20): ≧1 days
Period till solution becomes turbid to crystallize FK506 ([3]; FK 506 25 mg/ml, dilution times with physiological saline 100, HCO-60, ethanol/surface active agent 35/65): ≧7 days
Period till solution becomes turbid to crystallize FK506 ([3]; FK 506 25 mg/ml, dilution times with physiological saline 100, HCO-60, ethanol/surface active agent 60/40): ≧1 days
Period till solution becomes turbid to crystallize FK506 ([3]; FK 506 25 mg/ml, dilution times with physiological saline 100, HCO-60, ethanol/surface active agent 80/20): ≧7 days
Period till solution becomes turbid to crystallize FK506 ([3]; FK 506 50 mg/ml, dilution times with physiological saline 2, Cremophor®EL, ethanol/surface active agent 35/65): ≧7 days
Period till solution becomes turbid to crystallize FK506 ([3]; FK 506 50 mg/ml, dilution times with physiological saline 2, Cremophor®EL, ethanol/surface active agent 80/20): ≧1 days
Period till solution becomes turbid to crystallize FK506 ([3]; FK 506 50 mg/ml, dilution times with physiological saline 2, HCO-40, ethanol/surface active agent 40/60): ≧7 days
Period till solution becomes turbid to crystallize FK506 ([3]; FK 506 50 mg/ml, dilution times with physiological saline 2, HCO-40, ethanol/surface active agent 80/20): ≧1 days
Period till solution becomes turbid to crystallize FK506 ([3]; FK 506 50 mg/ml, dilution times with physiological saline 2, HCO-60, ethanol/surface active agent 35/65): ≧7 days
Period till solution becomes turbid to crystallize FK506 ([3]; FK 506 50 mg/ml, dilution times with physiological saline 2, HCO-60, ethanol/surface active agent 60/40): ≧7 days
Period till solution becomes turbid to crystallize FK506 ([3]; FK 506 50 mg/ml, dilution times with physiological saline 2, HCO-60, ethanol/surface active agent 80/20): ≧7 days
remaining percentage of FK 506 in aqueous solution (storage stability) [4]: stability for long period storage is not expectable
